This is an account of results in US20040109845A1, “Method for inhibiting articular cartilage matrix calcification” (priority 2001, published 2004).

Data set [1] deals with TGase activity (tTGase and Factor XIIIa) in meniscal cells. Description: TGase activity in cultured knee meniscal cells (BP incorporation into N,N-dimethylcasein). The data set is classed as cell-based, human. To be noted: monolayer culture, 48-72 hrs; IL-1β, TGFβ, TNFα 10 ng/ml; Noc-12 2.5-25 μM; Sin-1 1-10 μM. On the procedure:
Meniscal cells were maintained in DMEM high glucose and supplemented with 10% FCS, 1% L-glutamine, 100 units/ml Penicillin and 50 μg/ml Streptomycin (Omega Scientific, Tarzana, Calif.) and cultured at 37° C. with 5% CO2. In monolayer cell culture studies involving stimulation by TGFE[…] or IL-1, the cells were placed in DMEM high glucose containing 1% FCS, 1% L-glutamine, 100 units/ml Penicillin and 50 μg/ml Streptomycin. In all other studies, the cells were cultured in complete medium (as described above). Only primary or first passage meniscal cells were studied.
(§1) TGase activity was measured by modifications to a previously described method (35). Specifically, we coated 96 well ImmunoModule plates (Nunc, Rochester, N.Y.) with 200 μl of 20 mg/ml N,N-dimethylcasein for 1 hr at 23° C. The N,N-dimethylcasein was removed and nonspecific protein binding was blocked by adding 3% BSA in 100 mM Tris, pH 8.5, 150 mM NaCl, 0.05% Tween-20 (TBST) to each well for an additional 1 hr at 23° C. Then, aliquots of 5 μg of total cellular protein from meniscal or TC28 cells that had been lysed and sonicated (in 5 mM Tris HCl, 0.25 M sucrose, 0.2 mM MgSO4, 2 mM DTT, 0.4 mM PMSF, 0.4% Triton X100, pH 7.5), were added to the plate in triplicate. To measure TGase in extracts of whole menisci, 50 mg dry weight of tissue from the central zone of each medial meniscus was used as the source (after solubilization and sonication) for aliquots of 5 μg of soluble protein. Fifty μl of solution A (100 mM Tris, pH 8.5 and 20 mM CaCl2) was added to all samples for TGase assay, followed by the addition of 50 μl of solution B (100 mM Tris, pH 8.5, 40 mM DTT and freshly added 2 mM 5-(Biotinamido) pentylamine (BP)). The plates were incubated for 1 hr at 37° C. The wells were washed once with TBST containing 1 mM EDTA and then three times with TBST. One hundred μl of a 1:500 dilution of streptavidin-AP in 3% BSA/TBST was added to each well for 1 hr at 23° C. The wells were washed twice with TBST, and 200 μl of solution C (100 mM Tris, pH 9.8, mM NaCl, 5 mM MgCl2, 1 mg/ml of freshly added p-nitrophenylphosphate) was added to each well. Readings at OD410 were taken over 15 minutes. Purified guinea pig liver TGase (Sigma) was used to prepare a standard curve. TGase activity was designated as the amount of BP incorporated into casein (per μg cellular DNA, determined chromogenically following precipitation in perchlorate (28), or, where indicated, per μg protein, determined as previously described (28)).
To directly induce expression of each TGase in meniscal cells, 5×10^5 primary cells were plated in 60 mm dishes and allowed to adhere overnight. We modified (28) the manufacturer's protocol for the Lipofectamine Plus kit (Life Technologies, Grand Island, N.Y.). To optimize the transfection of meniscal cells, we added 2.0 ml of serum-free DMEM/F12 containing 0.00015% digitonin to washed cells and incubated for 3 min at 23° C. Then, media was removed, and cells transfected at 37° C. for 7 hrs, followed by removal of the media and addition of complete DMEM high glucose medium. Transfection of each TGase into TC28 cells was done by the same procedure, with the exception that the digitonin permeabilization step was omitted.

Data set [2] relates to S100A11 mRNA in human articular chondrocytes. As to the kind of experiment: S100A11 mRNA expression by RT-PCR. The data set is classed as cell-based. To be noted: 10 ng/ml, 24 hours, relative to L30. How it is done: Normal human knee articular chondrocytes were treated in culture with IL-1 or IGF-I (10 ng/ml) for 24 hours and ascertained for S100A11 mRNA expression by RT-PCR, relative to the loading control L30, a ribosomal housekeeping gene. Results for induction of S100 A11 representative of 3 separate experiments with different donors.

In data set [3] the test system is tTGase and Factor XIIIa expression in knee articular cartilage and medial meniscus. Description: Immunohistochemistry of cartilage organ culture. The data set is classed as cell-based, human. To be noted: organ culture 48 hours. How it is done: Articular cartilage and medial menisci from normal donors were studied in cartilage organ culture in media supplemented with 1% FCS and 1% L-glutamine, as described in the Methods, following 48 hours of treatment with TGFβ 10 ng/ml, IL-1β (1 ng/ml), or medium alone.
Immunohistochemistry was performed as previously described in detail (30,33,34). In brief, immunohistochemical sections (5 microns) were pretreated with bovine testicular hyaluronidase (0.5 mg/ml at 37° C. for 30 min) and incubated in 5% normal goat or rabbit serum for 20 min prior to avidin/biotin peroxidase staining by the ABC method. Hematoxilin was used as the counterstain. Biotinylated anti-rabbit or anti-goat antibodies served as secondary antibodies. Levamisole was added to block endogenous alkaline phosphatase (AP). Negative controls were nonimmune rabbit or goat serum as a substitute for primary antibody.
Meniscal cells were taken from tissue slices removed from the central regions of the medial and lateral menisci. Where indicated, meniscal organ culture was performed by incubating these slices for b 48 hours in DMEM high glucose containing 1% FCS and 1% L-glutamine (and articular cartilage organ culture performed in the same manner, where indicated). Otherwise, we minced meniscal tissue with a scalpel, incubated in DMEM high glucose containing 2 mg/ml clostridial collagenase, 5% FCS, 1% L-glutamine, 100 units/ml Penicillin and 50 μg/ml Streptomycin (Omega Scientific, Tarzana, Calif.), and incubated on a gyratory shaker at 37° C. until the tissue fragments were digested. Residual multicellular aggregates were removed by sedimentation (1,000×g), and cells were washed three times in DMEM containing 5% FCS.

Another data set relates to NTPPPH. Description: NTPPPH activity of cultured meniscal cells. The data set is classed as cell-based, human. To be noted: 48 h, 10 ng/ml. How it is done: (§2) Meniscal cells (from the same donors used in FIG. 3 above) were released from the matrix with collagenase digestion, and grown in monolayer culture for 72 hrs, then trypsinized and plated in 35 mm dishes (containing 3×10^5 cells) and allowed to adhere overnight. Cells were then treated for 48 h with 10 ng/ml of TGFβ or IL-1β (10 ng/ml) in 1% FCS-containing DMEM high glucose medium. The cells were collected and lysed for the TGase (FIG. 5A), NTPPPH (FIG. 5B), and AP (FIG. 5C) assays as described in the Methods. Five micrograms of soluble protein was studied in triplicate for each assay performed as previously described. Results were analyzed by linear regression, with results indicated.
(§3) PPi was determined by differential adsorption on activated charcoal of UDP-D-[6-^3H] glucose (Amersham, Chicago, Ill.) from the reaction product 6-phospho [6-^3H] gluconate (28). Units of NTPPPH and AP were designated as micromoles of substrate hydrolyzed per hour (per μg DNA in each sample) (28). NO release by cultured meniscal cells was measured using the Greiss reaction (33). Concentrations or specific activities of PPi, NTPPPH, and AP were equalized for cellular DNA concentrations in each well.

For data set [4], the system named is alkaline phosphatase (AP). Description: AP activity of cultured meniscal cells. To be noted: 48 h, 10 ng/ml. The data set is classed as cell-based, human. How it is done:
as §2, §3

For data set [5], the system named is TGase activity in knee meniscal cells and TC28 cells. Description: TGase activity in nonadherent nodule-forming culture on polyHEME. Type of data set: cell-based, human. To be noted: polyHEME plates, β-glycerophosphate, ascorbate, dexamethasone, up to 10 days; cytokines 10 ng/ml or TGase transfection. On the procedure: FIG. 10 refers to effects of direct Factor XIIIa and tTGase expression on TGase activity in meniscal cells and TC28 cells. Human chondrocytic TC28 cells or normal knee meniscal cells (5×10^5), were plated in 60 mm dishes and allowed to adhere overnight, as described in the Methods. Two μg of plasmid DNAs or empty plasmid vector were then transfected, performed as described above. After 24 hrs, the cells were removed from the dishes and plated on polyHEME-coated tissue culture plates and media supplemented with 10 mM P-glycerophosphate, ascorbatte (50 μg/ml) and dexamethasone (10^−8 M), which stimulated the cells to form mineralizing nodules for 3-10 days in culture. For comparison purposes, cells were treated only with IL-1 or TGFβ (10 ng/ml each) for up to 10 days. At each time point designated, the cell nodules were collected and lysed, and TGase activity then determined as previously described. For meniscal cells, data pooled from 6 donors studied in triplicate. For TC28 cells, n=6 each, studied in triplicate. Statistics not indicated on this graph, but p<0.05 for the increases in TGase activities in response to both Factor XIIIa and tTGase transfection, and for IL-1 treatment, at all time points.
as §1, with “One hundred μl of a 1:500 dilution of streptavidin-AP in 3% BSA/TBST was added to each well for 1 hr at 23° C. The wells were washed twice with TBST, and 200 μl of solution C (100 mM Tris, pH 9.8, mM NaCl, 5 mM MgCl2, 1 mg/ml of freshly added p-nitrophenylphosphate) was added to each well.” left out, “Purified guinea pig liver TGase (Sigma) was used to prepare a standard curve.” left out, “(28)). […]” for “(28)).”

For data set [6], the system named is meniscal cells and TC28 cells. Description: Matrix calcification, quantitative Alizarin Red S binding assay. To be noted: polyHEME culture up to 10 days; cytokines 10 ng/ml or TGase transfection. Type of data set: cell-based, human. How it is done:
TC28 cells and meniscal cells were transfected with empty plasmid or a TGase expression construct, and then transferred to polyHEME and cultured for up to 10 days, as described above. For comparison purposes, control untransfected cells were treated with IL-1 or TGFβ(10 ng/ml each) for up to 10 days. To measure matrix calcification, media and cells were removed from the PolyHEME-coated dishes, and 1 ml Alizarin Red S solution (0.5% v/v Alizarin Red S, pH 5.0) added to washed plates at 23° C. for 10 min. After further washing, 100 mM Cetylpyridium Chloride was added for 10 min to release the remaining calcium-bound Alizarin Red S. The solution was collected and read at OD570, with 1.0 OD570=1 unit of Alizarin Red released per μg of DNA per culture dish. n=6 each, studied in triplicate, and using 6 different knee meniscal donors. *p<0.05.
To promote matrix calcification in short-term cultures, we modified a nonadherent chondrocyte culture system (37), and assessed cells that formed calcifying nodules over 10 days in culture. In brief, meniscal and TC28 cells, at 24 hours after the transfection, were washed and removed from the dish using 0.2 mg/ml EDTA, pH 8.0, then transferred to 6 well plates that had been previously coated with a 10% (wt./v) in 95% ethanol solution of Poly (2-Hydroxyethyl methacrylate) (polyHEME). […]
To assay calcification of the pericellular matrix of meniscal cells and TC28 cells, we used a quantitative Alizarin Red S binding assay (38). […] The solution was collected and read at OD570 on a SpectraMAX microplate reader (Molecular Devices, Sunnyvale, Calif.), with 1 OD570=1 unit of Alizarin Red released per μg of DNA per culture dish. We extracted matrix crystals from plates under each condition using a papain-hypochlorite method (39), and the crystals were embedded in Spurr epoxy resin, sectioned, and viewed on a Philips EM340 transmission electron micrograph and analyzed by electron diffraction (40,41).

“Also recorded” adds a separate entry of the source.

Take `[NH-]c1c[n+](N2CCOCC2)no1` [Sin-1, reference compound]: in data set [1], the “Induction of TGase activity in cultured normal knee meniscal cells” value (“Induction of TGase activity” for short) is recorded as “shared the ability of II-1 to induce TGase activity”.
Regarding “IGF-1: IGF-1, involved in the pathogenesis of osteoarthritis”, the “S100A11 mRNA expression” value in data set [2] is listed as “induce mRNA expression of S100A11”.
For the compound “TGFβ: Human recombinant TGF-β1 purchased from R&D Systems”, in data set [1], the “Induction of TGase activity” value was “did not induce TGase activity; also recorded: but not TGFβ”. Besides, in data set [3] (knee articular cartilage and meniscal cartilage slices, TGFβ 10 ng/ml, IL-1β 1 ng/ml), the “tTGase and Factor XIIIa immunostaining” value is “induced increased tTGase and Factor XIIIa immunostaining”. Moreover, in data set [3] (knee articular cartilage), the tTGase expression result is “up-regulated tTGase expression”. The NTPPPH activity entry with NTPPPH is “stimulated increased NTPPPH activity in association with aging”. Further, the AP activity entry in data set [4] is “did not significantly change”. Also, in data set [5], the “TGase activity under mineralizing nonadherent conditions” value is “did not significantly augment activity of TGase”.
For the compound `CCNCCN(CC)N(O)N=O` [Noc-12, reference compound], the “Induction of TGase activity” value in data set [1] is “shared the ability of II-1 to induce TGase activity”.
Turning to “tTGase: human 3.3 kb full length tTGase cDNA construct in pSG5, transfected into cells”, in data set [5], the “TGase activity under mineralizing nonadherent conditions” value was “markedly increased TGase activity”. In data set [6], the “Matrix calcification (bound Alizarin Red S)” value is on record as “induced particularly marked increases in the amount of calcium precipitated in the matrix”.
On the same counts, the results for “Factor XIIIa: recombinant human Factor XIIIa cDNA in pUC18, transfected into meniscal and TC28 cells” are “markedly increased TGase activity” and “induced particularly marked increases in the amount of calcium precipitated in the matrix”.
Regarding TNFα, in data set [1], the “Induction of TGase activity” value was “stimulated increased TGase activity; also recorded: induce TGase activity”.
